Laboratory results published in US11092596B2, “Material and method to screen proteasome stimulators” (Purdue Research Foundation, priority 2017, dated 2021).

Tests used:
[1] = target: trypsin-like activity of the 20S CP (Homo sapiens, UniProt Q99436); assay: Kinetic assay, T-L FRET reporter hydrolysis by purified 20S CP; format: biochemical; settings: 25 μM compound, T-L FRET reporter; basal level set to 100%
Description: (§1) Plate preparation for the kinetic assay was performed similarly for all assays. All 96-well plates contained the following in triplicate: reporter background, containing reporter only, and control wells, containing reporter and purified 20S CP. It was determined that each well will contain a total volume of 50 μL. To each well was added 40 μL of the coumarin or FRET reporters (in Tris-HCl, 50 mM, pH 7.7). To the reporter background wells was added 7.5 μL Tris-HCl and 2.5 μL of the solvent in which the compound of interest was dissolved or diluted. Similarly, to the control wells was added 2.5 μL Tris-HCl and 2.5 μL of the solvent in which the compound of interest was dissolved or diluted. To the test wells was added 2.5 μL Tris-HCl and 2.5 μL of the compound of interest at a predetermined concentration. Immediately prior to running the assay on the Synergy 4 Plate Reader, 5 μL purified 20S proteasome (90 nM in Tris-HCl) was added to the control and test wells.
The Synergy 4 Plate Reader was set to heat the plate at 37° C. and read fluorescence every 2 min over a 40 min period. The excitation and emission wavelengths were set according to the reporter. For the FRET reporter, the excitation and emission wavelengths were set to 335 nm and 493 nm, respectively, corresponding to the excitation and emission wavelengths of the Edans fluorophore. […]
Stimulation of the 20S proteasome with SDS was determined using both the coumarin and FRET reporters for the chymotrypsin-like and trypsin-like activities of the 20S CP. […] Immediately prior to running the assay on the Synergy 4 Plate Reader, 5 μL purified 20S proteasome (90 nM in Tris-HCl) was added to the control and test wells. The assay was performed using the Synergy 4 plate reader as described for the general screening kinetic assay procedure. […]
To each well was added 40 μL 20 μM T-L FRET reporter (in Tris-HCl, 50 mM, pH 7.7). […] Immediately prior to running the assay on the Synergy 4 Plate Reader, 5 μL purified 20S proteasome (90 nM in Tris-HCl) was added to the control and test wells.

[2] = target: T1, chymotrypsin-like activity of the 20S CP (Homo sapiens, UniProt P28074); assay: Kinetic assay, CT-L FRET reporter hydrolysis by purified 20S CP; format: biochemical; settings: CT-L FRET reporter; for EC50: dose response 0.78125-400 μM, triplicate, read-out: EC50 (concentration of half of the maximum stimulation) for 20S CP stimulation
T1 construct: 5 μL purified 20S proteasome (90 nM in Tris-HCl) was added to the control and test wells
Description: as §1
The Synergy 4 Plate Reader was set to heat the plate at 37° C. and read fluorescence every 2 min over a 40 min period. The excitation and emission wavelengths were set according to the reporter. For the FRET reporter, the excitation and emission wavelengths were set to 335 nm and 493 nm, respectively, corresponding to the excitation and emission wavelengths of the Edans fluorophore. For the coumarin reporter, the excitation and emission wavelengths were set to 380 nm and 460 nm, respectively.
(§2) AM-404 was used as a positive control compound to test the dose-response screening capabilities of the CT-L FRET reporter. The following concentrations of AM-404 were tested in triplicate: 50, 25, and 12.5 μM. To each well was added 40 μL 20 μM CT-L FRET (in Tris-HCl, 50 mM, pH 7.7). To the reporter background wells was added 5 μL Tris-HCl and 5 μL 1:1 Tris-HCl:DMSO. Similarly, to the control wells was added 5 μL 1:1 Tris-HCl:DMSO. To the 50 μM AM-404 test wells was added 2.5 μL Tris-HCl and 2.5 μL 1000 μM AM-404 in DMSO. To the 25 μM AM-404 test wells was added 2.5 μL Tris-HCl and 2.5 μL 500 μM AM-404 in DMSO. To the 12.5 μM AM-404 test wells was added 2.5 μL Tris-HCl and 2.5 μL 250 μM AM-404 in DMSO. Immediately prior to running the assay on the Synergy 4 Plate Reader, 5 μL purified 20S proteasome (90 nM in Tris-HCl) was added to the control and test wells. The assay was performed using the Synergy 4 plate reader as described for the general screening kinetic assay procedure.
as §2, with “Fenofibrate was” for “AM-404 was”, “a negative” for “a positive”, “of fenofibrate” for “of AM-404”, “μM fenofibrate” for “μM AM-404”, “procedure. […]” for “procedure.”

C[C@H]1[C@H](C)CC[C@]2(C(=O)O)CC[C@]3(C)C(=CC[C@@H]4[C@@]5(C)CC[C@H](O)C(C)(C)[C@@H]5CC[C@]43C)[C@H]12 [Compound 2, ursolic acid]
stimulation of the trypsin-like activity of the 20S CP [1]: 234% | EC50 [2]: 14 µM | 20S CP stimulation over basal level (dose response curve) ([2]; maximum of dose response curve): 100%

Cc1c(C)c2c(c(C)c1OC(=O)CCC(=O)O)CC[C@@](C)(CCC[C@H](C)CCC[C@H](C)CCCC(C)C)O2 [Compound 3, vitamin E succinate]
stimulation of the trypsin-like activity of the 20S CP [1]: 146% | EC50 [2]: 7 µM
